The record followed here is patent publication US7192939B2, “Pestalotiopsis microsporia isolates and compounds derived therefrom” (Montana State University, priority 2002, dated 2007).

Molecules are shown by their SMILES. ≈ marks a conversion by molar mass, not a printed value.

Data set [1] deals with Pythium ultimum. Description: Antimycotic activity, minimum inhibitory concentration in potato dextrose broth. Type of data set: cell-based. How it is done: (§1) The minimum inhibitory concentration of (1) required to give a 100% reduction of growth of a test fungus over a course of two days was determined by dissolving (1) in 1 ml of potato dextrose broth (PDB). An agar plug, 1 cm in dia, containing the test fungus was then added to the broth and the organisms incubated at 23° C. for 48 hr. At that time the plate containing the fungi was examined visually for growth and the concentration of compound reducing growth by 100% was recorded. Fungi tested were each plant pathogenic and included an oomycete—Pythium ultimum, an ascomycete—Sclerotinia sclerotiorum, and a basidiomycete—Rhizoctonia solani.
Isopestacin (1) is antimycotic, with total inhibition of Pythium ultimum, a plant pathogenic oomycete, at 40 μg/ml at 48 hr.
Pestacin was also analyzed for antifungal activity using previously described methodology. […] This level of activity is slightly greater than that previously observed for isopestacin.

Data set [2] is described as follows: Total oxyradical scavenging capacity (TOSC) assay. In kind it is biochemical. Particulars: for IC50: TOSC assay, ABAP initiator, KMBA, 37° C., ethylene by GC, read-out: solution concentration required to reduce the effects of the free radical initiator by 50%. The source says: The similarity of pestacin to isopestacin, described herein and in Strobel, G. A.; Ford, E.; Worapong, J.; Harper, J. K.; Arif, A. M.; Grant, D. M.; Fung, P.; Chau, R. M. W. Phytochem. […] Pestacin was thus analyzed using the total oxyradical scavenging capacity (TOSC) assay. This analysis assesses a compounds ability to inhibit a free radical initiator's oxidation of α-Keto-γ-methiolbutyric acid to release ethylene gas. Compounds with antioxidant properties thus decrease the production of ethylene gas, as measured gas chromatographically. Pestacin required a 1.7±0.1 mM solution to reduce the effects of the free radical initiator by 50%. In contrast, the water-soluble vitamin E derivative, troxol, required an 18.8±0.9 mM solution to exert the same effect. Pestacin, therefor, appears to be an extremely effective antioxidant as measured by this assay. A mechanism for antioxidant activity may also be proposed based on the structure of pestacin.
Antioxidant activity of (1) was assessed by dissolving 8.7 mg of (1) in 200 μL of DMSO then diluting the solution 1:10, 1:100, and 1:1000 in DMSO. A 10 μL volume of each sample was then combined in a 10 mL vial with 100 μL of 100 mM potassium phosphate buffer, 100 μL of 2 mM α-keto-γ-methiolbuthric acid (KMBA), and 690 μL of H2O. Control samples were also prepared containing 100 μL of 100 mM potassium phosphate buffer, 100 μL of 2 mM KMBA, and 700 μL of H2O. The sealed samples were then incubated at 37° C. for 5 minutes followed by injection of 100 μL of the free radical initiator, 2,2′-azobis(2-methylpropionamidine) (ABAP). Peroxy radicals, generated by thermal homolysis of ABAP at 37° C., then oxidized KMBA to produce ethylene gas. Ethylene production was monitored by gas chromatography of 1 mL samples removed every 12 minutes over a 96-minute period. Chromatographic analysis was performed on a Hewlett-Packard 5890A gas chromatograph equipped with a Supelco 6-foot Porpak Q packed column, a flame ionization detector, and employing helium as a carrier gas (30 mL/min). […]

Data set [3] can be described thus: ESR hydroxyl free radical scavenging (Fenton reaction, DEPMPO spin trap). In kind it is biochemical. Particulars: 0.18 mM OH• chemically generated (Fenton), read-out: concentration required to reduce hydroxyl free radical by 50%. On the procedure:
EPR techniques used in this work are primarily those reported by Sheu et al., 2000 and Zhu and Fung, 2000. All EPR spectra were recorded on a Bruker model ESP 300E spectrometer, X-band operating at a microwave frequency 9.787 gHz, a microwave power of 10 mW, a modulation frequency of 100.0 kHz, and a modulation amplitude of 0.367 mT. The magnetic field range was 334±80 mT, a time constant of 40.96 ms, a receiver gain of 2×10^4 and a magnetic fieldsweep rate of 0.48 mT/s. The magnetic field spacings are similar to those reported by Zhang et al (2000). The superoxide O2 ^−• was generated by the action of hypoxanthine or xanthine on water and oxygen through the catalysis of xanthine oxidase. The hydroxyl free radical OH^• is generated by the well-known Fenton reaction: Fe^2++H2O2=Fe^3++OH^−+OH^•, where 0.09 mM ferrous sulfate and 0.18 mM H2O2 were used. All enzymes and their respective substrates were purchased from Sigma Chemical Co., while other reagents were acquired from Calbiochem, and Life-Tech. […] Test compounds were added to the tube and their effects on signal reduction (antioxidant activity) were monitored. […]
Testing confirms that Isopestacin (1) indeed has antioxidant activity as determined by ESR measurements described in the experimental section. […] Simultaneously, EPR spectra are recorded of the free electrons associated with the free radicals. […]

The subject of data set [4] is Sclerotinia sclerotiorum. Description: Antimycotic activity, minimum inhibitory concentration in potato dextrose broth. Type of data set: cell-based. How it is done:
as §1

For data set [5], the system named is Rhizoctonia solani. The data set is described as above. In kind it is cell-based. How it is done: as §1
Data set [6] in a line: ESR superoxide scavenging (hypoxanthine/xanthine oxidase, EMPO spin trap). In kind it is biochemical. To be noted: superoxide generated by hypoxanthine/xanthine oxidase, read-out: concentration needed to reduce the free radical O2−• (ESR signal) by 50%.
Experimental: All EPR spectra were recorded on a Bruker model ESP 300E spectrometer, X-band operating at a microwave frequency 9.787 gHz, a microwave power of 10 mW, a modulation frequency of 100.0 kHz, and a modulation amplitude of 0.367 mT. The magnetic field range was 334±80 mT, a time constant of 40.96 ms, a receiver gain of 2×10^4 and a magnetic fieldsweep rate of 0.48 mT/s. […] The superoxide O2 ^−• was generated by the action of hypoxanthine or xanthine on water and oxygen through the catalysis of xanthine oxidase. […] All enzymes and their respective substrates were purchased from Sigma Chemical Co., while other reagents were acquired from Calbiochem, and Life-Tech. The reaction mixture was transferred to an EPR flat tube for signal detection. Also placed in the tube was a spin trap compound-2-ethoxycarbonyl-2-methyl-3,4-dihydro-2H-pyrrole-1-oxide (EMPO) to trap the superoxide. […] Test compounds were added to the tube and their effects on signal reduction (antioxidant activity) were monitored. Because of the water insolubility of (1) it was necessary to dissolve it first into a small amount of methanol and then add it to the reaction mixture. […]
The superoxide was generated in our experimental set-up by the action of hypoxanthine on water and oxygen via the catalysis of xanthine oxidase. […] Simultaneously, EPR spectra are recorded of the free electrons associated with the free radicals. […]
Data set [7] is described as follows: Solubility in water. In kind it is physicochemical.
A short description of data set [8]: Lipid free radical reduction. Type of data set: biochemical. The source says:
Testing confirms that Isopestacin (1) indeed has antioxidant activity as determined by ESR measurements described in the experimental section. The compound is able to scavenge superoxide O2^−• and OH^• radicals in solution. The superoxide was generated in our experimental set-up by the action of hypoxanthine on water and oxygen via the catalysis of xanthine oxidase. On the other hand OH^• was generated via the Fenton reaction of hydrogen peroxide on ferrous iron. Simultaneously, EPR spectra are recorded of the free electrons associated with the free radicals. […] It should be noted that since superoxide was generated via the xanthine oxidase reaction it was no possible to accurately calculate the exact molar concentration of O2^−• in these reactions. However, (1) is extremely capable of scavenging the hydroxyl free radical (OH^•) with 0.22 mM required to reduce this free radical (0.18 mM OH^•—chemically generated) by 50%. This is an important biological and chemical property of (1) since OH^• is believed to be more detrimental to cell death directly than O2^−•. On the other hand, (1) has no effect in reducing the lipid free radical LOO^−•.

Turning to `Cc1cc(O)c2c(c1)COC2c1c(O)cccc1O` (racemic) [Pestacin], the MIC in data set [1] (Globisporangium ultimum, previously described methodology, read-out: minimum inhibitory concentration against Pythium ultimum) was approximately 10 µg/mL (≈ 38.7 µM). Moreover, in data set [2], the IC50 turned out to be 1.7 ± 0.1 mM. The “antioxidant activity relative to troxol” value in data set [2] (pestacin vs vitamin E derivative troxol) is reported as 11 times.
Consider `Cc1cc(O)c2c(c1)C(c1c(O)cccc1O)OC2=O` (racemic) [Isopestacin, 1-oxo-3-(9,13-dihydroxybenzene)-5-methyl-7-hydroxy-1,3-dihydrobenzofuranone], for which the figures for the IC50 in data set [3] and in data set [6] were 0.22 mM and not below 0.185 mM, respectively. Further, the “inhibitory effect on Sclerotinia sclerotiorum” value in data set [4] was “no inhibitory effect”. Further, the “inhibitory effect on Rhizoctonia solani” value in data set [5] is on record as “no inhibitory effect”. Besides, the “concentration giving total inhibition of Pythium ultimum” value in data set [1] (at 48 hr, 100% reduction of growth) was 40 µg/mL. The solubility in water entry in data set [7] is given as “very low solubility in water”. The “effect in reducing the lipid free radical LOO−•” value in data set [8] is listed as “no effect”.
As for `Cc1c(C)c2c(c(C)c1O)CCC(C)(C(=O)O)O2` (centres unmarked) [troxol, reference compound], the IC50 in data set [2] worked out at 18.8 ± 0.9 mM.
